Values quoted from earlier work as cited in US20080107740A1, “Pharmaceutical composition comprising salmeterol and budesonide for the treatment of respiratory disorders” (GALEPHAR M/F, priority 2001, published 2008).

Key:
[1] = tested on: patients with reversible obstructive respiratory disease
[2] = inhaled, administered after or before inhaled corticosteroids

Question: Which “onset of significant bronchodilation” value ([1]; after inhalation) does the source give for `OCc1cc(C(O)CNCCCCCCOCCCCc2ccccc2)ccc1O` (stereo not shown) [Salmeterol] here?
Answer: within minutes

Question: What about the “time to maximal bronchodilation” value ([1]; after inhalation) of the same compound?
Answer: ≤ 2 h

Question: And the duration of bronchodilation ([1]; inhalation, patients with reversible obstructive respiratory disease)?
Answer: up to 12 hours

Question: And the tolerability [2]?
Answer: well tolerated
